Reference: PubChem BioAssay (NCI)
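Briefly, cells in 96-well plates were exposed to five compound concentrations for 48 h, and endpoints were estimated by linear interpolation. GI50: concentration for 50% inhibition of growth. TGI denotes the concentration required for complete inhibition of growth.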

What was measured:
Assay in all cases: NCI-60 cell line screen, 48 h; in the data active = GI50 below about 0.43 µM; inactive = the rest
[1] = system: SK-MEL-5 melanoma
[2] = system: HL-60(TB) leukemia
[3] = system: EKVX NSCLC
[4] = system: SW-620 colon
[5] = system: NCI-H23 lung
[6] = system: SF-268 CNS
[7] = system: MALME-3M melanoma
[8] = system: A549 NSCLC
[9] = system: DU-145 prostate
[10] = system: NCI-H522 lung
[11] = system: T-47D breast
[12] = system: HCT-116 colon
[13] = system: HS 578T breast
[14] = system: MDA-MB-468 breast
[15] = system: HCT-15 colon
[16] = system: HOP-92 NSCLC
[17] = system: SK-OV-3 ovarian
[18] = system: 786-0 renal
[19] = system: CCRF-CEM leukemia
[20] = system: SK-MEL-28 melanoma
[21] = system: UACC-62 melanoma
[22] = system: SNB-19 CNS
[23] = system: UACC-257 melanoma
[24] = system: SR leukemia
[25] = system: RPMI-8226 leukemia
[26] = system: ACHN renal
[27] = system: NCI/ADR-RES ovarian
[28] = system: COLO 205 colon
[29] = system: KM12 colon
[30] = system: SF-539 CNS
[31] = system: OVCAR-8 ovarian
[32] = system: BT-549 breast
[33] = system: SN12C renal
[34] = system: OVCAR-3 ovarian
[35] = system: HOP-62 NSCLC
[36] = system: MCF7 breast
[37] = system: OVCAR-4 ovarian
[38] = system: SF-295 CNS
[39] = system: HCC-2998 colon
[40] = system: RXF 393 renal
[41] = system: MDA-MB-435
[42] = system: IGROV1 ovarian
[43] = system: OVCAR-5 ovarian
[44] = system: A498 renal
[45] = system: TK-10 renal
[46] = system: CAKI-1 renal
[47] = system: HT29 colon
[48] = system: K-562 leukemia
[49] = system: NCI-H226 lung
[50] = system: U251 CNS
[51] = system: PC-3 prostate
[52] = system: M14 melanoma
[53] = system: LOX IMVI melanoma
[54] = system: NCI-H460 lung
[55] = system: MOLT-4 leukemia

CS(=O)(=O)Nc1ccc(-c2ccc3c(c2)ncn3-c2ccc(NC(=O)Nc3ccc(Br)cc3)cc2)cc1
13 µM: TGI [35]
4.31 µM: TGI [55]
3.47 µM: TGI [24]
12.3 µM: TGI [26]
7.81 µM: TGI [1]
10.9 µM: TGI [14]
12.8 µM: TGI [32]
3.85 µM: TGI [25]
> 72.3 µM: TGI [3] | TGI [4] | TGI [5] | TGI [6] | TGI [8] | TGI [9] | TGI [11] | TGI [12] | TGI [13] | TGI [15] | TGI [16] | TGI [17] | TGI [20] | TGI [22] | TGI [27] | TGI [28] | TGI [29] | TGI [31] | TGI [33] | TGI [34] | TGI [37] | TGI [39] | TGI [41] | TGI [42] | TGI [43] | TGI [45] | TGI [46] | TGI [47] | TGI [49] | TGI [50] | TGI [51] | TGI [52] | TGI [54]
active: GI50 [29] 336 nM
3.33 µM: TGI [2]
7.64 µM: TGI [30]
5.94 µM: TGI [7]
4.41 µM: TGI [38]
inactive: GI50 [1] 2350 nM | GI50 [2] 1490 nM | GI50 [3] 2400 nM | GI50 [4] 3.05 µM | GI50 [5] 2570 nM | GI50 [6] 3.41 µM | GI50 [7] 1950 nM | GI50 [8] 2440 nM | GI50 [9] 3.36 µM | GI50 [10] 2110 nM | GI50 [11] 2750 nM | GI50 [12] 2330 nM | GI50 [13] 2420 nM | GI50 [14] 2260 nM | GI50 [15] 2400 nM | GI50 [16] 3.39 µM | GI50 [17] 2920 nM | GI50 [18] 2250 nM | GI50 [19] 2120 nM | GI50 [20] 2180 nM | GI50 [21] 2250 nM | GI50 [22] 2570 nM | GI50 [23] 2170 nM | GI50 [24] 1390 nM | GI50 [25] 1520 nM | GI50 [26] 2550 nM | GI50 [27] 10.8 µM | GI50 [28] 2590 nM | GI50 [30] 830 nM | GI50 [31] 2810 nM | GI50 [32] 2640 nM | GI50 [33] 2370 nM | GI50 [34] 2760 nM | GI50 [35] 2540 nM | GI50 [36] 1810 nM | GI50 [37] 3.13 µM | GI50 [38] 1570 nM | GI50 [39] 3.32 µM | GI50 [40] 1160 nM | GI50 [41] 2620 nM | GI50 [42] 3.17 µM | GI50 [43] 3.4 µM | GI50 [44] 3.42 µM | GI50 [45] 3.32 µM | GI50 [46] 6 µM | GI50 [47] 2430 nM | GI50 [48] 1880 nM | GI50 [49] 3.08 µM | GI50 [50] 2400 nM | GI50 [51] 2690 nM | GI50 [52] 2360 nM | GI50 [53] 2640 nM | GI50 [54] 2640 nM | GI50 [55] 1370 nM
7.23 µM: TGI [19]
31.2 µM: TGI [10]
9.2 µM: TGI [21]
16 µM: TGI [18]
44.3 µM: TGI [53]
21.5 µM: TGI [44]
4.56 µM: TGI [40]
7.89 µM: TGI [23] | TGI [36]
4.91 µM: TGI [48]
